39 compounds from patent US20260355217A1, “HPK1 INHIBITOR, PREPARATION METHOD THEREFOR, AND USE THEREOF” (Beijing Earthwise Technology Co., Ltd., priority 2022, published 2026) can be followed below.

As usually defined, the EC50 is the midpoint of the concentration-response curve. The low end stands for a more potent agent, the high end for a less potent agent. By IC50 is commonly meant the midpoint of a concentration-inhibition curve.

The structures appear in SMILES notation.

Experiment [1] deals with human Pan T cells (IL-2 release). Kind of experiment: Human Pan T Cell IL-2 ELISA. The experiment is classed as cell-based. The protocol: Assay Example 4 Human Pan T Cell IL-2 ELISA
A compound was dissolved in DMSO to 10 mM, and then diluted three-fold with DMSO to 9 dosages in a 96-well plate. Then, 10 μL of the diluted compound sample was transferred to a 96-well plate with 90 μL of cell culture medium, and the plate was shaken for 5 minutes. Then, 5 μL of the diluted compound sample was transferred to a 96-well plate with 120 μL of cell culture medium, and the plate was shaken for 5 minutes. According to the experimental design diagram, 50 μL of the diluted compound sample was transferred to a cell plate. Final concentrations of the compound in this assay were 10000.00, 5000, 2500, 1250, 625, 312.5, 156.25, 78.125 and 39.063 nM.
The assay was conducted in a 96-well plate. On the first day of the assay, Anti-CD3 was added to the 96-well plate and incubated in a 4 °C refrigerator overnight. On the second day of the assay, human Pan T cells were recovered, centrifuged and counted. The cell density was adjusted to 1*10^6 cells/ml. Then, 100 μL of cells were added to the 96-well plate washed with PBS and added with Anti-CD3; according to the experimental design diagram, 50 μL of diluted Anti-CD28 and 50 μL of the diluted compound were added to each well, centrifuged, and the cell plate was placed and incubated in an incubator for 48 hours; after 48 hours, the plate was centrifuged and the supernatant was collected for IL-2 ELISA.
The signal value of light absorption was converted into a multiple. Multiple=sample value/the average value of control wells. The average value of control wells refers to the value measured in wells with DMSO added. EC50 values were calculated by XLFit (version 5.3.1.3) in Excel. Equation: Y=Bottom+(Top−Bottom)/(1+(EC50/X)^HillSlope).
A general note: An ELISA detects its analyte on a solid surface through an enzyme-linked reagent.

Experiment [2] concerns the target T1, pSLP76 (Phospho-SLP-76 (Ser376)), Jurkat E6-1 cells (Homo sapiens, UniProt Q92918).
T1 construct: read-out phospho-SLP-76 (Ser376) HTRF
The experiment is described as follows: Phospho-SLP-76 (Ser376) HTRF Assay in Jurkat E6-1 cells. In kind it is cell-based. Particulars: compound 4 hours, then anti-CD3 20 minutes. The protocol:
Assay Example 3 Phospho-SLP-76 (Ser376) HTRF Assay
A compound was dissolved in DMSO to 10 mM, and then diluted three-fold with DMSO to 10 dosages in a 96-well plate. Then, 3 μL of the diluted compound sample was transferred to a 96-well plate with 97 μL of cell culture medium, and the plate was shaken for 5 minutes. According to the experimental design diagram, 7.5 μL of the diluted compound sample was transferred to a cell plate. Final concentrations of the compound in this assay were 10000.00, 3333.33, 1111.11, 370.37, 123.46, 41.15, 13.72, 4.57, 1.52 and 0.51 nM.
In this assay, the density of Jurkat E6-1 cells was maintained between 3*10^5 to 3*10^6 cells/mL. The cell culture was replaced with fresh culture medium every 2 to 3 days (depending on the cell density). 30 μL of Jurkat E6-1 (300,000 cells) was added to a 96-well plate and incubated in a 37 °C incubator for 1 hour. Then, according to the experimental design diagram, compounds (6×, 7.5 μL) were added to treat the cells for 4 hours, respectively. After 4 hours, purified anti-human anti-CD3 antibodies (6×, 7.5 μL) were added to treat the cells for 20 minutes. After 20 minutes, 15 μL of cell lysis buffer (4×) was added, and the cells were lysed at 25 °C with shaking (250 rpm) for 1 hour. Then, according to the experimental design diagram, 16 μL of cell lysate was transferred to a 384-well plate using a pipette. After the transfer, 4 μL of antibody detection mixture was added. After being placed at room temperature overnight, the plate was read by EnVision multi-function microplate reader to read the FRET signal (the ratio of HTRF 665/615 was calculated from the readings at 665 nm and 615 nm).
The ratio of the signal at 665 nm to the signal at 615 nm was converted to the percentage of inhibition. Inhibition %=(maximum value−sample value)/(maximum value−minimum value)×100. The minimum value refers to the signal value of a well without anti-CD3 antibody stimulation during the treatment of cells, and the maximum value refers to the signal value of a well with anti-CD3 antibody stimulation but without the compound during the treatment of cells. IC50 values were calculated by XLFit (version 5.3.1.3) in excel. Equation: Y=Bottom+(Top−Bottom)/(1+(IC50/X)^HillSlope).
On the technique in general: TR-FRET usually uses a lanthanide donor and a delayed reading to cut background.

Where [3] appears, read: Anti-CD3/Anti-CD28, 48 hours, IL-2 ELISA.
Setting [4] is: Homo sapiens, T-cell, 48 h, Anti-CD3/Anti-CD28, IL-2 ELISA.
Where [5] appears, read: Homo sapiens, T-cell, 48 h, Anti-CD3/Anti-CD28 stimulation, IL-2 ELISA of supernatant.
Where [6] appears, read: Anti-CD3/Anti-CD28 stimulation, 48 hours, IL-2 ELISA of supernatant.

T1 sequence (Q92918 whole entry): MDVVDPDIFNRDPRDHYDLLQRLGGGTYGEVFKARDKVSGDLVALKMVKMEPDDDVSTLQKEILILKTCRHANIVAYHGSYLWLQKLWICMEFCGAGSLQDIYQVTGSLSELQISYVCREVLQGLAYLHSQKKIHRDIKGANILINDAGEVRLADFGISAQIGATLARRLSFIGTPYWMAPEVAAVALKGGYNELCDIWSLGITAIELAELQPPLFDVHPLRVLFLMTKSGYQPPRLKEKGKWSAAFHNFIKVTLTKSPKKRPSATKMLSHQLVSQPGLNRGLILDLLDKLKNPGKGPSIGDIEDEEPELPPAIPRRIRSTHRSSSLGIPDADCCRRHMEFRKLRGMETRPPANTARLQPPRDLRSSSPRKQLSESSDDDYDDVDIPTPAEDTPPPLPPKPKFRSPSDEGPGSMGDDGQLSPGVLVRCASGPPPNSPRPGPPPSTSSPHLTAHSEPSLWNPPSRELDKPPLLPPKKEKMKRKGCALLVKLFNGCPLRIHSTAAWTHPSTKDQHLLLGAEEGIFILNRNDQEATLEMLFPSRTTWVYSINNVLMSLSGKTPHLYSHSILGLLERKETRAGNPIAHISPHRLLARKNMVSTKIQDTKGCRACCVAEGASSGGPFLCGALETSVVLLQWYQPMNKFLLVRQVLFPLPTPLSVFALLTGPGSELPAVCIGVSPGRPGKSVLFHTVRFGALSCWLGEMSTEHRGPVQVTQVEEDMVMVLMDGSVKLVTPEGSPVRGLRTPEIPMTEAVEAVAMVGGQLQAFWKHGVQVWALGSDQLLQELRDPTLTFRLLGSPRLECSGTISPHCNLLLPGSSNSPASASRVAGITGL

Consider `COC1CCCn2c(-c3cc4c(c5c3CNC5=O)Nc3ccc(N5CCOCC5)nc3C4(C)C)cnc21` (single isomer, unassigned) [Example 25], for which the EC50 in experiment [1] (setting [3]) came to 33.4 nM.
In experiment [1] (setting [4]), `Cc1ccn2c(-c3cc4c(c5c3CNC5=O)Nc3ccc(N5CCO[C@H](C(C)(C)O)C5)cc3C4(C)C)cnc2c1F` (single isomer, unassigned) [Example 89] showed an EC50 of 6.64 nM.
On to `CO[C@@H]1CCCn2c(-c3cc4c(c5c3CNC5=O)Nc3ccc(N5CCOCC5)cc3C4(C)C)cnc21` (single isomer, unassigned) [Example 91], for which, in experiment [1] (setting [4]), the response was half-maximal at 5.96 nM (EC50).
The same measure, in the same setting: then `CC1(C)c2cc(N3CCO[C@H](C(C)(C)O)C3)ccc2Nc2c1cc(-c1cnc3cc(F)ccn13)c1c2C(=O)NC1` (single isomer, unassigned) [Example 94], with 4.84 nM; and `Cc1ccc2c(-c3cc4c(c5c3CNC5=O)Nc3ccc(N5CCO[C@H](C(C)(C)O)C5)cc3C4(C)C)cnn2c1` (single isomer, unassigned) [Example 96], with 5.91 nM.
`Cc1ccn2c(-c3cc4c(c5c3CNC5=O)Nc3ccc(N5CCOC(C(C)(C)O)C5)cc3C4(C)C)cnc2c1` (single isomer, unassigned) [Example 106] gave an EC50 in experiment [1] (setting [3]) of 18.3 nM.
Same read-out and setting: the figure for `COC1CCCn2c(-c3cc4c(c5c3CNC5=O)Nc3ccc(N5CCOC(C(C)(C)O)C5)cc3C4(C)C)cnc21` (single isomer, unassigned) [Example 132] is 10.1 nM.
In experiment [1] (setting [4]), `CCO[C@@H]1CCCn2c(-c3cc4c(c5c3CNC5=O)Nc3ccc(N5CCOCC5)cc3C4(C)C)cnc21` (single isomer, unassigned) [Example 137] registered an EC50 of 26.8 nM.
For `CO[C@H]1CCn2c(-c3cc4c(c5c3CNC5=O)Nc3ccc(N5CCO[C@@H](C(C)(C)O)C5)cc3C4(C)C)cnc2C1` (single isomer, unassigned) [Example 166], the EC50 in experiment [1] (setting [5]) came out at 15 nM.
In the case of `CC[C@@]1(C)c2cc(N3CCOCC3)ccc2Nc2c1cc(-c1cnc3n1CCC[C@@H]3OC)c1c2C(=O)NC1` (single isomer, unassigned) [Example 167], the EC50 in experiment [1] (setting [6]) amounted to 38 nM.
The same measure, in the same setting: the figure for `CC[C@@]1(C)c2cc(N3CCOCC3)ccc2Nc2c1cc(-c1cnc3n1CCC[C@@H]3OC)c1c2C(=O)NC1` (single isomer, unassigned) [Example 168] is 17 nM.
On to `CO[C@@H]1CCn2c(-c3cc4c(c5c3CNC5=O)Nc3ccc(N5CCO[C@@H](C(C)(C)O)C5)cc3C4(C)C)cnc2C1` (single isomer, unassigned) [Example 176], for which a half-maximal effect in experiment [1] (setting [5]) (EC50) was put at 31 nM.
For `COC1CCCn2c(-c3cc4c(c5c3CNC5=O)Nc3ccc(N5CCOCC5C)cc3C4(C)C)cnc21` (single isomer, unassigned) [Example 180], in experiment [1] (setting [6]), the EC50 was determined as 27 nM.
On the same count and under the same terms, the figure for `COC1CCCn2c(-c3cc4c(c5c3CNC5=O)Nc3ccc(N5CCOCC5C)cc3C4(C)C)cnc21` (single isomer, unassigned) [Example 181] is 26 nM.
For the compound `CC1(C)c2cc(N3CCOCC3)ccc2Nc2c1cc(-c1cnc3n1CCC[C@@H]3OC1COC1)c1c2C(=O)NC1` (single isomer, unassigned) [Example 221], the midpoint of the response in experiment [1] (setting [5]), the EC50, lay at 98 nM.
Regarding `Cc1ccn2c(-c3cc4c(c5c3CNC5=O)Nc3ccc(N5CCO[C@H](C(C)(C)O)C5)cc3C4(C)C)cnc2c1` (stereo in doubt) [Example 107], it took 11.9 nM to reach a half-maximal effect in experiment [1] (setting [4]) (EC50).
The compound `CO[C@H]1CCCn2c(-c3cc4c(c5c3CNC5=O)Nc3ccc(N5CC6CCC5CO6)cc3C4(C)C)cnc21` (stereo in doubt) [Example 204] returned an EC50 in experiment [1] (setting [5]) of 15 nM.
`CC1(C)c2cc(N3CCOCC3)ccc2Nc2c1cc(-c1cnc3c(Cl)cccn13)c1cc[nH]c(=O)c21` [Example 1] had an EC50 in experiment [1] (setting [4]) of 3.67 nM. This compound registered an IC50 in experiment [2] of 121 nM.
In turn, `COc1cccn2c(-c3cc4c(c5c(=O)[nH]ccc35)Nc3ccc(N5CCOC(C(C)(C)O)C5)cc3C4(C)C)cnc12` (centres unmarked) [Example 2] displayed an IC50 in experiment [2] of 64 nM.
Same read-out and setting: then `COc1cccn2c(-c3cc4c(c5c(=O)[nH]ccc35)Nc3ccc(N5CCOCC5)cc3C4(C)C)cnc12` [Example 3], with 57.5 nM; and `CC1(C)c2cc(N3CCOCC3)ccc2Nc2c1cc(-c1cnn3cccnc13)c1cc[nH]c(=O)c21` [Example 4], with 38.1 nM; and `Cc1ccn2c(-c3cc4c(c5c(=O)[nH]ccc35)Nc3ccc(N5CCOC(C(C)(C)O)C5)cc3C4(C)C)cnc2c1F` (centres unmarked) [Example 6], with 164 nM.
On the same count and under the same terms, then `Cc1ccc2c(-c3cc4c(c5c(=O)[nH]ccc35)Nc3ccc(N5CCOC(C(C)(C)O)C5)cc3C4(C)C)cnn2c1` (centres unmarked) [Example 7], with 487 nM; and `COc1cccc2c(-c3cc4c(c5c(=O)[nH]ccc35)Nc3ccc(N5CCOCC5)cc3C4(C)C)cnn12` [Example 8], with 103 nM.
Turning to `Cc1ccn2c(-c3cc4c(c5c3CNC5=O)Nc3ccc(N5CCOC(C(C)(C)O)C5)cc3C4(C)C)cnc2c1F` (centres unmarked) [Example 9], half-maximal inhibition in experiment [2] (IC50) was put at 57.8 nM.
Turning to `COc1cccn2c(-c3cc4c(c5c3CNC5=O)Nc3ccc(N5CCOCC5)cc3C4(C)C)cnc12` [Example 10], the EC50 in experiment [1] (setting [4]) was 4.88 nM. Moreover, the midpoint of inhibition in experiment [2], the IC50, lay at 42.7 nM.
`Cc1ccn2c(-c3cc4c(c5c3CNC5=O)Nc3ccc(N5CCOCC5)cc3C4(C)C)cnc2c1F` [Example 11] had an IC50 in experiment [2] of 73.3 nM.
The same measure, in the same setting: then `CC1(C)c2cc(N3CCOCC3)ccc2Nc2c1cc(-c1cnc3cccnn13)c1c2C(=O)NC1` [Example 12], with 25.9 nM; and `COc1cccn2c(-c3cc4c(c5c3CNC5=O)Nc3cnc(N5CCOCC5)cc3C4(C)C)cnc12` [Example 14], with 197 nM; and `CC1(C)c2cc(N3CCOCC3)ccc2Nc2c1cc(-c1cnn3cccnc13)c1c2C(=O)NC1` [Example 16], with 31.6 nM.
On the same count and under the same terms, then `CC1(C)c2cc(N3CCOCC3)ccc2Nc2c1cc(-c1cnn3c(C#N)cccc13)c1c2C(=O)NC1` [Example 17], with 56.9 nM; and `COc1cccc2c(-c3cc4c(c5c3CNC5=O)Nc3ccc(N5CCOCC5)cc3C4(C)C)cnn12` [Example 18], with 66 nM; and `COc1cccn2c(-c3cc4c(c5c3CNC5=O)Nc3ccc(N5CCOCC5)nc3C4(C)C)cnc12` [Example 20], with 83.6 nM.
In turn, `COc1cccc2c(-c3cc4c(c5c3CNC5=O)Nc3ncc(N5CCOCC5)cc3C4(C)C)cnn12` [Example 21] yielded an IC50 in experiment [2] of 37 nM.
On the same count and under the same terms, then `COc1ccnn2c(-c3cc4c(c5c3CNC5=O)Nc3ccc(N5CCOCC5)cc3C4(C)C)cnc12` [Example 31], with 58.8 nM.
In turn, `Cc1ccnn2c(-c3cc4c(c5c3CNC5=O)Nc3ccc(N5CCOC(C(C)(C)O)C5)cc3C4(C)C)cnc12` (centres unmarked) [Example 33] showed an EC50 in experiment [1] (setting [4]) of 4.95 nM.
In experiment [2], `Cn1ccn2c(-c3cc4c(c5c3CNC5=O)Nc3ccc(N5CCOCC5)cc3C4(C)C)cnc2c1=O` [Example 41] displayed an IC50 of 13.5 nM.
In experiment [1] (setting [4]), `COc1ccnc2c(-c3cc4c(c5c3CNC5=O)Nc3ccc(N5CCOCC5)cc3C4(C)C)cnn12` [Example 66] came in with an EC50 of 7.83 nM.
With `CO[C@H]1CCCn2c(-c3cc4c(c5c3CNC5=O)Nc3ccc(N5CC6CCC(C5)O6)cc3C4(C)C)cnc21` [Example 196], in experiment [1] (setting [5]), a half-maximal response (EC50) required 27 nM.
